From patent US12123030B2, “Polynucleotides encoding lipoprotein lipase for the treatment of hyperlipidemia” (ModernaTX, Inc., priority 2016, dated 2024)

What was measured:
[1] = tested on: triglycerides; conditions: existing hyperlipidemia treatment, patients; cited from earlier work
[2] = tested on: triglycerides in HTG patients; conditions: existing HTG treatments; cited from earlier work
[3] = tested on: IP-10; assay: Cytokine expression after nanoparticle compositions: IP-10; assay type: in vivo; conditions: 6 h; nanoparticle composition including the compound
[4] = tested on: IL-6; assay: Cytokine expression after nanoparticle compositions: IL-6; assay type: in vivo; conditions: 6 h; nanoparticle composition including the compound
[5] = tested on: ffluc; assay: Average total flux (ffluc) from nanoparticle compositions; assay type: in vivo; conditions: 6 h
[6] = tested on: hEPO; assay: hEPO expression from nanoparticle compositions; assay type: in vivo; conditions: for hEPO expression: nanoparticle composition including the compound; for Average hEPO concentration: Table 9
[7] = tested on: adult rat; assay: Dose range finding (DRF) study in adult rat; assay type: in vivo; conditions: one month, one dose per week (5 total doses)
Protocol: (§1) Dose range finding (DRF) studies using surrogate Compound 18 are in progress to further examine the Compound 18 programs. One month of a DRF study, consisting of one dose per week (5 total doses) in adult rat was performed in order to measure hematology, clinical chemistry, and full pathology. […] Additionally, one month of GLP dose studies, consisting of five doses (one per week) via IV infusion will be administered to rats in order to examine safety pharmacology measures, including central nervous system (rats) and cardiovascular system (monkeys), such as heart rate, blood pressure, and EKG readings. Furthermore, gene toxicity studies were be undertaken, in vitro, using a 4 strain Ames test, and in vitro micronucleous hPBMCs. […] An in vivo mouse micronucleus assay will also be performed to further investigate the Compound 18/5-methoxy uridine (mo5U) modification chemistry.

[8] = tested on: 4 strain Ames test; assay: 4 strain Ames test; assay type: cell-based; conditions: in vitro
Protocol: as §1

Row | SMILES | reduction in triglycerides [1] | reduction in triglycerides [2] | Cytokine expression IP-10 [3] [pg/mL] | Cytokine expression IL-6 [4] [pg/mL] | Average total flux [5] | hEPO expression ([6]; 3 h) [pg/mL] | Average hEPO concentration ([6]; 6 h) [pg/mL] | hEPO expression ([6]; 6 h) [pg/mL] | hEPO expression ([6]; 24 h) [pg/mL] | adverse events [7] | clinical chemistry [7] | mutagenic potential (Ames data) [8]
1 | O=C(O)c1cccnc1 [Nicotinic acid] | 15-25% | 15-25% |  |  |  |  |  |  |  |  |  | 
2 | CCCCC/C=C\C/C=C\CCCCCCCCN(CCO)CCCCCCCC(=O)OC(CCCCCCCC)CCCCCCCC [Compound 6] |  |  | 116.66 | 10.15 | 7.60 × 10^9 |  |  |  |  |  |  | 
3 | CCCCC/C=C\C/C=C\CCCCCCCCC(CCCCCCCC/C=C\C/C=C\CCCCC)OC(=O)CCCN(C)C [MC3] |  |  | 117.94 | 19.85 | 6.59 × 10^9 | 1.57e+06 | 1.83e+06 | 1.83e+06 | 810000 |  |  | 
4 | CCCCCCCCCOC(=O)CCCCCCCN(CCO)CCCCCCCC(=O)OC(CCCCCCCC)CCCCCCCC [Compound 18, Heptadecan-9-yl 8-((2-hydroxyethyl)(8-(nonyloxy)-8-oxooctyl)amino) octanoate] |  |  | 299.93 | 10.16 |  | 3e+06 | 3.38e+06 |  | 1.8e+06 | No adverse events were reported | normal | does not have mutagenic potential
